In EP4230621A1, “SUBSTITUTED N-BENZOIC ACID URACILS, THEIR SALTS AND USE OF SAID COMPOUNDS AS HERBICIDAL AGENTS” (Bayer AG, priority 2022, dated 2023):

Tests used:
Format in all cases: in vivo
Abutilon theophrasti = test: Post-emergence herbicidal action against ABUTH (greenhouse pot test); conditions: visual rating after ca. 3 weeks vs untreated controls (100% = plants dead, 0% = like controls)
Text: (§1) Die folgenden Abkürzungen werden für die in den folgenden Tabellen aufgeführten Kultur- und Schadpflanzen verwendet: ABUTH: Abutilon theophrasti ALOMY: Alopecurus myosuroides AMARE: Amaranthus retroflexus BRSNS: Brassica napus DIGSA: Digitaria sanguinalis ECHCG: Echinochloa crus-galli GLXMA: Glycine max KCHSC: Kochia scoparia LOLRI: Lolium rigidum MATIN: Matricaria inodora ORYZA: Oryza sativa PHPBU: Pharbitis purpurea POLCO: Polygonum convolvulus SETVI: Setaria viridis VERPE: Veronica persica VIOTR: Viola tricolor TRZAS: Triticum aestivum ZEAMX: Zea mays
(§2) Samen von mono- bzw. dikotylen Unkrautpflanzen wurden in Kunststoff- oder Holzfasertöpfen in sandigem Lehmboden ausgelegt, mit Erde abgedeckt und im Gewächshaus unter kontrollierten Wachstumsbedingungen angezogen. 2 bis 3 Wochen nach der Aussaat wurden die Versuchspflanzen im Einblattstadium behandelt. Die in Form von benetzbaren Pulvern (WP) oder als Emulsionskonzentrate (EC) formulierten erfindungsgemäßen Verbindungen wurden dann als wässrige Suspension bzw. Emulsion unter Zusatz von 0,5% Additiv mit einer Wasseraufwandmenge von umgerechnet 600 1/ha auf die grünen Pflanzenteile gesprüht. Nach ca. 3 Wochen Standzeit der Versuchspflanzen im Gewächshaus, unter optimalen Wachstumsbedingungen, wurde die Wirkung der Präparate visuell im Vergleich zu unbehandelten Kontrollen bonitiert. Beispielsweise bedeutet 100% Wirkung = Pflanzen sind abgestorben, 0% Wirkung = wie Kontrollpflanzen.
(§3) In den nachstehenden Tabellen A1 bis A11 sind die Wirkungen ausgewählter Verbindungen der allgemeinen Formel (I) gemäß der Tabelle 1 auf verschiedene Schadpflanzen und einer Aufwandmenge entsprechend 80 g/ha und niedriger, die gemäß zuvor genannter Versuchsvorschrift erhalten wurden, dargestellt. Tabelle A1a: Nachauflaufwirkung bei 5 g/ha gegen ABUTH in %

Alopecurus myosuroides = test: Post-emergence herbicidal action against ALOMY (greenhouse pot test); conditions: visual rating after ca. 3 weeks vs untreated controls (100% = plants dead, 0% = like controls)
Text: as §1, §2, §3

Amaranthus retroflexus = test: Post-emergence herbicidal action against AMARE (greenhouse pot test); conditions: visual rating after ca. 3 weeks vs untreated controls (100% = plants dead, 0% = like controls)
Text: as §1, §2, §3

Digitaria sanguinalis = test: Post-emergence herbicidal action against DIGSA (greenhouse pot test); conditions: visual rating after ca. 3 weeks vs untreated controls (100% = plants dead, 0% = like controls)
Text: as §1, §2, §3

Lolium rigidum = test: Post-emergence herbicidal action against LOLRI (greenhouse pot test); conditions: visual rating after ca. 3 weeks vs untreated controls (100% = plants dead, 0% = like controls)
Text: as §1, §2, §3

Matricaria inodora = test: Post-emergence herbicidal action against MATIN (greenhouse pot test); conditions: for Nachauflaufwirkung gegen MATIN: visual rating after ca. 3 weeks vs untreated controls (100% = plants dead, 0% = like controls); for Nachauflaufwirkung gegen MATIN in %: 80 g/ha
Text: as §1, §2, §3

Pharbitis purpurea = test: Post-emergence herbicidal action against PHBPU (greenhouse pot test)
Text: as §1, §2, §3

Polygonum convolvulus = test: Post-emergence herbicidal action against POLCO (greenhouse pot test)
Text: as §1, §2, §3

Setaria viridis = test: Post-emergence herbicidal action against SETVI (greenhouse pot test)
Text: as §1, §2, §3

Veronica persica = test: Post-emergence herbicidal action against VERPE (greenhouse pot test)
Text: as §1, §2, §3

Viola tricolor = test: Post-emergence herbicidal action against VIOTR (greenhouse pot test)
Text: as §1, §2, §3

Zea mays = test: Post-emergence action on crop plants, ZEAMX (greenhouse pot test); conditions: 5 g/ha, crop plant
Text: as §1
as §2, with “Kulturpflanzen” for “Unkrautpflanzen”
(§4) In den nachstehenden Tabellen B1 bis B3 sind die Wirkungen ausgewählter Verbindungen der allgemeinen Formel (I) gemäß der Tabelle 1 auf verschiedene Kulturpflanzen und einer Aufwandmenge entsprechend 20 g/ha und niedriger, die gemäß zuvor genannter Versuchsvorschrift erhalten wurden, dargestellt. Tabelle B1a: Nachauflaufwirkung bei 5 g/ha gegen ZEAMX in %

Triticum aestivum = test: Post-emergence action on crop plants, TRZAS (greenhouse pot test); conditions: crop plant
Text: as §1
as §2, with “Kulturpflanzen” for “Unkrautpflanzen”
as §4

Oryza sativa = test: Post-emergence action on crop plants, ORYZA (greenhouse pot test); conditions: 5 g/ha
Text: as §1
as §2, with “Kulturpflanzen” for “Unkrautpflanzen”
as §4

SMILES	Nachauflaufwirkung gegen ABUTH (Abutilon theophrasti; 5 g/ha) [%]	Nachauflaufwirkung gegen ABUTH (Abutilon theophrasti; 20 g/ha) [%]	Nachauflaufwirkung gegen ABUTH (Abutilon theophrasti; 80 g/ha) [%]	Nachauflaufwirkung gegen ALOMY (Alopecurus myosuroides; 20 g/ha) [%]	Nachauflaufwirkung gegen ALOMY (Alopecurus myosuroides; 80 g/ha) [%]	Nachauflaufwirkung gegen AMARE (Amaranthus retroflexus; 5 g/ha) [%]	Nachauflaufwirkung gegen AMARE (Amaranthus retroflexus; 20 g/ha) [%]	Nachauflaufwirkung gegen AMARE (Amaranthus retroflexus; 80 g/ha) [%]	Nachauflaufwirkung gegen DIGSA (Digitaria sanguinalis; 5 g/ha) [%]	Nachauflaufwirkung gegen DIGSA (Digitaria sanguinalis; 20 g/ha) [%]	Nachauflaufwirkung gegen DIGSA (Digitaria sanguinalis; 80 g/ha) [%]	Nachauflaufwirkung gegen LOLRI (Lolium rigidum; 80 g/ha) [%]	Nachauflaufwirkung gegen MATIN (Matricaria inodora; 5 g/ha) [%]	Nachauflaufwirkung gegen MATIN (Matricaria inodora; 20 g/ha) [%]	Nachauflaufwirkung gegen MATIN in % (Matricaria inodora) [%]	Nachauflaufwirkung gegen PHBPU in % (Pharbitis purpurea; 5 g/ha) [%]	Nachauflaufwirkung gegen PHBPU in % (Pharbitis purpurea; 20 g/ha) [%]	Nachauflaufwirkung gegen PHBPU in % (Pharbitis purpurea; 80 g/ha) [%]	Nachauflaufwirkung gegen POLCO in % (Polygonum convolvulus; 5 g/ha) [%]	Nachauflaufwirkung gegen POLCO in % (Polygonum convolvulus; 20 g/ha) [%]	also measured
CCOCCOC(=O)C(C)(C)OC(=O)c1cc(-n2c(=O)cc(C(F)(F)F)n(C)c2=O)c(F)cc1Cl [I.1-2]	100	100	100	90	100	100	100	100	100	100	100	100	100	100	100	100	100	100	100	100	Nachauflaufwirkung gegen POLCO in % (Polygonum convolvulus; 80 g/ha): 100%; Nachauflaufwirkung gegen SETVI in % (Setaria viridis; 5 g/ha): 100%; Nachauflaufwirkung gegen SETVI in % (Setaria viridis; 20 g/ha): 100%; Nachauflaufwirkung gegen SETVI in % (Setaria viridis; 80 g/ha): 100%; Nachauflaufwirkung gegen VERPE in % (Veronica persica; 5 g/ha): 100%; Nachauflaufwirkung gegen VERPE in % (Veronica persica; 20 g/ha): 100%; Nachauflaufwirkung gegen VERPE in % (Veronica persica; 80 g/ha): 100%; Nachauflaufwirkung gegen VIOTR in % (Viola tricolor; 5 g/ha): 100%; Nachauflaufwirkung gegen VIOTR in % (Viola tricolor; 20 g/ha): 100%; Nachauflaufwirkung gegen VIOTR in % (Viola tricolor; 80 g/ha): 100%; Nachauflaufwirkung gegen ZEAMX in % (Zea mays): 20%; Nachauflaufwirkung gegen TRZAS in % (Triticum aestivum; 5 g/ha): 10%; Nachauflaufwirkung gegen TRZAS in % (Triticum aestivum; 20 g/ha): 20%; Nachauflaufwirkung gegen ORYZA in % (Oryza sativa): 0%
Cn1c(C(F)(F)F)cc(=O)n(-c2cc(C(=O)OC(C)(C)C(=O)OCc3ccccn3)c(Cl)cc2F)c1=O [I.1-286]	100	100	100	100	100	100	100	100	100	100	100	100	100	100	100	100	100	100	100	100	Nachauflaufwirkung gegen LOLRI (Lolium rigidum; 20 g/ha): 90%; Nachauflaufwirkung gegen POLCO in % (Polygonum convolvulus; 80 g/ha): 100%; Nachauflaufwirkung gegen SETVI in % (Setaria viridis; 5 g/ha): 100%; Nachauflaufwirkung gegen SETVI in % (Setaria viridis; 20 g/ha): 100%; Nachauflaufwirkung gegen SETVI in % (Setaria viridis; 80 g/ha): 100%; Nachauflaufwirkung gegen VERPE in % (Veronica persica; 5 g/ha): 100%; Nachauflaufwirkung gegen VERPE in % (Veronica persica; 20 g/ha): 100%; Nachauflaufwirkung gegen VERPE in % (Veronica persica; 80 g/ha): 100%; Nachauflaufwirkung gegen VIOTR in % (Viola tricolor; 5 g/ha): 100%; Nachauflaufwirkung gegen VIOTR in % (Viola tricolor; 20 g/ha): 100%; Nachauflaufwirkung gegen VIOTR in % (Viola tricolor; 80 g/ha): 100%; Nachauflaufwirkung gegen ZEAMX in % (Zea mays): 20%; Nachauflaufwirkung gegen TRZAS in % (Triticum aestivum; 5 g/ha): 10%; Nachauflaufwirkung gegen TRZAS in % (Triticum aestivum; 20 g/ha): 20%; Nachauflaufwirkung gegen ORYZA in % (Oryza sativa): 0%
